Experimental data published in PubChem BioAssay AID1963860 (Molecular Pharmacology Branch, DTP, NCI, 2024).

System: CN0375-F725-PDC KRAS spheroid viability
Test: Anticancer human tumor CN0375-F725-PDC patient-derived colon carcinoma cell line growth inhibition [KRAS2]
Settings: spheroids with HUVEC and MSC; for IC50: curve of first compound; for viability, T/C: stronger effect = lower value
Summary of the method: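 Combination screen of spheroid viability in tumor-cell co-cultures with endothelial (HUVEC) and mesenchymal stem cell stroma. Each agent was tested in half-log dilutions, topping at clinical Cmax or at 10 microM without a known Cmax.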

[1] = second compound 0.1 µM, first compound 0.0316 µM
[2] = second compound 0.1 µM, first compound 0.1 µM
[3] = second compound 0.1 µM, first compound 0.316 µM
[4] = second compound 0.1 µM, first compound 1 µM
[5] = second compound 0.316 µM, first compound 0.0316 µM
[6] = second compound 0.316 µM, first compound 0.1 µM
[7] = second compound 0.316 µM, first compound 0.316 µM
[8] = second compound 0.316 µM, first compound 1 µM
[9] = second compound 1 µM, first compound 0.0316 µM
[10] = second compound 1 µM, first compound 0.1 µM
[11] = second compound 1 µM, first compound 0.316 µM
[12] = second compound 1 µM, first compound 1 µM
[13] = second compound 3.16 µM, first compound 0.0316 µM
[14] = second compound 3.16 µM, first compound 0.1 µM
[15] = second compound 3.16 µM, first compound 0.316 µM
[16] = second compound 3.16 µM, first compound 1 µM
[17] = second compound 10 µM, first compound 0.0316 µM
[18] = second compound 10 µM, first compound 0.1 µM
[19] = second compound 10 µM, first compound 0.316 µM
[20] = second compound 10 µM, first compound 1 µM
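Also: spheroids exposed to agents for 7 days.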

| Compound | IC50 (second compound 0.1 µM) | IC50 (second compound 0.316 µM) | IC50 (second compound 1 µM) | IC50 (second compound 3.16 µM) | IC50 (second compound 10 µM) | viability, T/C [1] | viability, T/C [2] | viability, T/C [3] | viability, T/C [4] | viability, T/C [5] | viability, T/C [6] | viability, T/C [7] | viability, T/C [8] | viability, T/C [9] | viability, T/C [10] | viability, T/C [11] | viability, T/C [12] | viability, T/C [13] | viability, T/C [14] | viability, T/C [15] | other results |
| --- | --- | --- | --- | --- | --- | --- | --- | --- | --- | --- | --- | --- | --- | --- | --- | --- | --- | --- | --- | --- | --- |
| CC(C)NCC(C(=O)N1CCN(c2ncnc3c2C(C)CC3O)CC1)c1ccc(Cl)cc1 (stereo not given) + CC1OCC2(CCN(c3cnc(Sc4ccnc(N)c4Cl)c(N)n3)CC2)C1N | > 10 µM | > 10 µM | > 10 µM | > 10 µM | 5.95 µM | 100% | 95.9% | 94.4% | 88.7% | 93.6% | 93.5% | 89.9% | 82% | 90.5% | 88.7% | 84.3% | 74.8% | 87.4% | 83.9% | 76.5% | viability, T/C (second compound 0.1 µM, first compound 3.16 µM): 87.7%; viability, T/C (second compound 0.1 µM, first compound 10 µM): 71.7%; viability, T/C (second compound 0.316 µM, first compound 3.16 µM): 81.6%; viability, T/C (second compound 0.316 µM, first compound 10 µM): 70.8%; viability, T/C (second compound 1 µM, first compound 3.16 µM): 75.9%; viability, T/C (second compound 1 µM, first compound 10 µM): 66.2%; viability, T/C [16]: 70.3%; viability, T/C (second compound 3.16 µM, first compound 3.16 µM): 63.2%; viability, T/C (second compound 3.16 µM, first compound 10 µM): 56.5%; viability, T/C [17]: 71.3%; viability, T/C [18]: 68.3%; viability, T/C [19]: 62.3%; viability, T/C [20]: 54.9%; viability, T/C (second compound 10 µM, first compound 3.16 µM): 56.4%; viability, T/C (second compound 10 µM, first compound 10 µM): 46.3% |
| CCN1CCN(Cc2ccc(Nc3ncc(F)c(-c4cc(F)c5nc(C)n(C(C)C)c5c4)n3)nc2)CC1 + CC1OCC2(CCN(c3cnc(Sc4ccnc(N)c4Cl)c(N)n3)CC2)C1N | > 1 µM | > 1 µM | > 1 µM | > 1 µM | > 1 µM | 81.4% | 88.2% | 95.7% | 92.8% | 67.3% | 74.6% | 89.3% | 84.9% | 72.6% | 75.2% | 82.9% | 81.7% | 68.1% | 66.6% | 75.1% | viability, T/C (second compound 0.1 µM, first compound 0.00316 µM): 92.9%; viability, T/C (second compound 0.1 µM, first compound 0.01 µM): 83.3%; viability, T/C (second compound 0.316 µM, first compound 0.00316 µM): 84.9%; viability, T/C (second compound 0.316 µM, first compound 0.01 µM): 82.2%; viability, T/C (second compound 1 µM, first compound 0.00316 µM): 82.3%; viability, T/C (second compound 1 µM, first compound 0.01 µM): 80%; viability, T/C (second compound 3.16 µM, first compound 0.00316 µM): 72.2%; viability, T/C (second compound 3.16 µM, first compound 0.01 µM): 74.8%; viability, T/C [16]: 68.8%; viability, T/C (second compound 10 µM, first compound 0.00316 µM): 65.8%; viability, T/C (second compound 10 µM, first compound 0.01 µM): 69.3%; viability, T/C [17]: 60.4%; viability, T/C [18]: 61.1%; viability, T/C [19]: 70.4%; viability, T/C [20]: 53.3% |
